In PubChem BioAssay AID248 (DTP/NCI, 2004):
Several values for one entry are separate records, joined by “and”; a condition that tells them apart may be missing. Equal values may be shown once. Toxic doses and inconclusive results are not listed. No stated cut-off is given here; in the data, active means T/C of 150% or more; inactive means T/C below 125%.

Tested on: L1210 leukemia ip in BDF1 mice, survival T/C
Test: NCI In Vivo Anticancer Drug Screen. Data for tumor model L1210 Leukemia (intraperitoneal) in B6D2F1 (BDF1) mice
Details: higher = longer survival
How it was run: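 Ratio derived from survival: compound-dosed mice over vehicle-dosed mice, all bearing a transplantable tumor.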

[1] = endpoint: mean survival time, dose: 100.0 mg/kg/injection, schedule: Q01DX009 (ip), vehicle: saline with Tween-80
[2] = endpoint: mean survival time, dose: 100.0 mg/kg/injection, schedule: Q04DX002 (ip), vehicle: Klucel (hydroxypropylcellulose) (HPC)
[3] = endpoint: mean survival time, dose: 200.0 mg/kg/injection, schedule: Q04DX002 (ip), vehicle: Klucel (hydroxypropylcellulose) (HPC)
[4] = endpoint: mean survival time, dose: 400.0 mg/kg/injection, schedule: Q04DX002 (ip), vehicle: Klucel (hydroxypropylcellulose) (HPC)
[5] = endpoint: mean survival time, dose: 100.0 mg/kg/injection, schedule: Q01DX009 (ip), vehicle: Klucel (hydroxypropylcellulose) (HPC)
[6] = endpoint: mean survival time, dose: 100.0 mg/kg/injection, schedule: Q04DX003 (ip), vehicle: saline with Tween-80
[7] = endpoint: mean survival time, dose: 200.0 mg/kg/injection, schedule: Q04DX003 (ip), vehicle: saline with Tween-80
[8] = endpoint: mean survival time, dose: 400.0 mg/kg/injection, schedule: Q04DX003 (ip), vehicle: saline with Tween-80
[9] = endpoint: mean survival time, dose: 50.0 mg/kg/injection, schedule: Q01DX001 (ip), vehicle: saline
[10] = endpoint: mean survival time, dose: 100.0 mg/kg/injection, schedule: Q01DX001 (ip), vehicle: saline
[11] = endpoint: mean survival time, dose: 200.0 mg/kg/injection, schedule: Q01DX001 (ip), vehicle: saline
[12] = endpoint: mean survival time, dose: 400.0 mg/kg/injection, schedule: Q01DX001 (ip), vehicle: saline
[13] = endpoint: mean survival time, dose: 200.0 mg/kg/injection, schedule: Q01DX009 (ip), vehicle: Klucel (hydroxypropylcellulose) (HPC)
[14] = endpoint: mean survival time, dose: 400.0 mg/kg/injection, schedule: Q01DX009 (ip), vehicle: Klucel (hydroxypropylcellulose) (HPC)

Measured: T/C

Cc1cccc(N=C2C(=O)NC(=O)NC2=O)c1
inactive: endpoint: mean survival time, dose: 100.0 mg/kg/injection, schedule: Q01DX Z (ip), vehicle: methylcellulose (MC) 103 % of control | endpoint: mean survival time, dose: 200.0 mg/kg/injection, schedule: Q01DX Z (ip), vehicle: methylcellulose (MC) 106 % of control

COC(=O)C1OC1(C)c1ccc(C)cc1 (stereo not drawn)
inactive: [1] 92 % of control | endpoint: mean survival time, dose: 400.0 mg/kg/injection, schedule: Q01DX009 (ip), vehicle: saline with Tween-80 106 % of control

COC(=O)COc1ccc2ccccc2c1Cl
inactive: [2] 86 % of control | [3] 99 % of control | [4] 96 % of control

Clc1ccc(CI)cc1
inactive: endpoint: mean survival time, dose: 25.0 mg/kg/injection, schedule: Q04DX003 (ip), vehicle: alcohol 106 % of control | endpoint: mean survival time, dose: 50.0 mg/kg/injection, schedule: Q04DX003 (ip), vehicle: alcohol 98 % of control | endpoint: mean survival time, dose: 100.0 mg/kg/injection, schedule: Q04DX003 (ip), vehicle: alcohol 98 % of control

COc1ccc(NC(=O)Oc2ccccc2C(N)=O)c(OC)c1
inactive: endpoint: mean survival time, dose: 25.0 mg/kg/injection, schedule: Q01DX009 (ip), vehicle: Klucel (hydroxypropylcellulose) (HPC) 109 % of control | endpoint: mean survival time, dose: 50.0 mg/kg/injection, schedule: Q01DX009 (ip), vehicle: Klucel (hydroxypropylcellulose) (HPC) 102 % of control | [5] 103 % of control and 112 % of control

Nc1nc(Br)c(Br)nc1N
inactive: [6] 104 % of control | [7] 96 % of control | [8] 93 % of control

COC1=C(Br)C(=O)c2ncccc2C1=O
inactive: endpoint: mean survival time, dose: 5.0 mg/kg/injection, schedule: Q01DX001 (ip), vehicle: carboxymethylcellulose (CMC) 104 % of control | endpoint: mean survival time, dose: 20.0 mg/kg/injection, schedule: Q01DX001 (ip), vehicle: carboxymethylcellulose (CMC) 94 % of control

O=P(c1ccco1)(c1ccco1)c1ccco1
inactive: endpoint: mean survival time, dose: 25.0 mg/kg/injection, schedule: Q04DX003 (ip), vehicle: saline with Tween-80 101 % of control | endpoint: mean survival time, dose: 50.0 mg/kg/injection, schedule: Q04DX003 (ip), vehicle: saline with Tween-80 95 % of control

CC(CN=[N+]=[N-])OC(=O)C(F)(F)F (stereo not drawn)
inactive: endpoint: mean survival time, dose: 37.5 mg/kg/injection, schedule: Q04DX003 (ip), vehicle: saline 104 % of control | endpoint: mean survival time, dose: 75.0 mg/kg/injection, schedule: Q04DX003 (ip), vehicle: saline 102 % of control | endpoint: mean survival time, dose: 150.0 mg/kg/injection, schedule: Q04DX003 (ip), vehicle: saline 106 % of control

COc1cc2nccc3c4ccccc4n(c1=O)c23
inactive: [9] 97 % of control | [10] 101 % of control | [11] 101 % of control | [12] 97 % of control

CC(=O)Nc1ccc(NC(=O)NC(C)(C)C)cc1
inactive: [5] 97 % of control | [13] 96 % of control | [14] 96 % of control

C[Se](=O)O.[Pb]
inactive: endpoint: mean survival time, dose: 3.13 mg/kg/injection, schedule: Q01DX001 (ip), vehicle: saline with Tween-80 98 % of control | endpoint: mean survival time, dose: 6.25 mg/kg/injection, schedule: Q01DX001 (ip), vehicle: saline with Tween-80 98 % of control | endpoint: mean survival time, dose: 12.5 mg/kg/injection, schedule: Q01DX001 (ip), vehicle: saline with Tween-80 88 % of control

COc1ccc(C[C@H](N)C(=O)NC2C(CO)OC(n3cnc4c(N(C)C)ncnc43)C2O)cc1 (stereo partly drawn)
inactive: endpoint: mean survival time, dose: 5.0 mg/kg/injection, schedule: Q01DX001 (ip), vehicle: saline 103 % of control | endpoint: mean survival time, dose: 9.94 mg/kg/injection, schedule: Q01DX Z (ip), vehicle: carboxymethylcellulose (CMC) 108 % of control | endpoint: mean survival time, dose: 10.0 mg/kg/injection, schedule: Q01DX001 (ip), vehicle: saline 97 % of control | endpoint: mean survival time, dose: 19.88 mg/kg/injection, schedule: Q01DX Z (ip), vehicle: carboxymethylcellulose (CMC) 117 % of control | endpoint: mean survival time, dose: 20.0 mg/kg/injection, schedule: Q01DX001 (ip), vehicle: saline 95 % of control | endpoint: mean survival time, dose: 39.75 mg/kg/injection, schedule: Q01DX Z (ip), vehicle: carboxymethylcellulose (CMC) 112 % of control | endpoint: mean survival time, dose: 40.0 mg/kg/injection, schedule: Q01DX001 (ip), vehicle: saline 110 % of control | endpoint: mean survival time, dose: 79.5 mg/kg/injection, schedule: Q01DX Z (ip), vehicle: carboxymethylcellulose (CMC) 113 % of control | endpoint: mean survival time, dose: 80.0 mg/kg/injection, schedule: Q01DX001 (ip), vehicle: saline 100 % of control | endpoint: median survival time, dose: 25.0 mg/kg/injection, schedule: Q04DX003 (ip), vehicle: saline 95 % of control | endpoint: median survival time, dose: 50.0 mg/kg/injection, schedule: Q04DX003 (ip), vehicle: saline 107 % of control | endpoint: median survival time, dose: 100.0 mg/kg/injection, schedule: Q04DX003 (ip), vehicle: saline 108 % of control | endpoint: median survival time, dose: 200.0 mg/kg/injection, schedule: Q04DX003 (ip), vehicle: saline 106 % of control

O=C(OCC1OC(n2c(=O)[nH]c(=O)c3ncsc32)C(OC(=O)c2ccccc2)C1OC(=O)c1ccccc1)c1ccccc1 (stereo not drawn)
inactive: endpoint: mean survival time, dose: 100.0 mg/kg/injection, schedule: Q01DX005 (ip), vehicle: saline 95 % of control | endpoint: mean survival time, dose: 200.0 mg/kg/injection, schedule: Q01DX005 (ip), vehicle: saline 101 % of control

CC(=O)NC(C)C(C)(C)O (stereo not drawn)
inactive: endpoint: mean survival time, dose: 100.0 mg/kg/injection, schedule: Q01DX009 (ip), vehicle: saline 101 % of control | endpoint: mean survival time, dose: 200.0 mg/kg/injection, schedule: Q01DX009 (ip), vehicle: saline 98 % of control | endpoint: mean survival time, dose: 400.0 mg/kg/injection, schedule: Q01DX009 (ip), vehicle: saline 103 % of control

CN(C)c1ccnc(Cl)n1
inactive: endpoint: mean survival time, dose: 16.0 mg/kg/injection, schedule: Q01DX Z (ip), vehicle: methylcellulose (MC) 97 % of control | endpoint: mean survival time, dose: 31.0 mg/kg/injection, schedule: Q01DX Z (ip), vehicle: methylcellulose (MC) 96 % of control | endpoint: mean survival time, dose: 62.0 mg/kg/injection, schedule: Q01DX Z (ip), vehicle: methylcellulose (MC) 90 % of control | endpoint: mean survival time, dose: 125.0 mg/kg/injection, schedule: Q01DX Z (ip), vehicle: methylcellulose (MC) 92 % of control and 100 % of control | endpoint: mean survival time, dose: 250.0 mg/kg/injection, schedule: Q01DX Z (ip), vehicle: methylcellulose (MC) 97 % of control

Cc1nsc(N(NC(=O)c2ccccc2)C(=O)c2ccccc2)n1
inactive: endpoint: mean survival time, dose: 75.0 mg/kg/injection, schedule: Q01DX001 (ip), vehicle: carboxymethylcellulose (CMC) 95 % of control

CCCCCCCCCCCCCCCCC1Cc2ccccc2C1
inactive: [9] 98 % of control | [10] 101 % of control | [11] 107 % of control | [12] 101 % of control

S=P(c1ccccc1)(c1ccccc1)c1cccc2ccccc12
inactive: [10] 100 % of control | [11] 94 % of control | [12] 94 % of control

Cc1ccc(Cl)cc1NC(=O)N1CCCCC1C (stereo not drawn)
inactive: endpoint: mean survival time, dose: 50.0 mg/kg/injection, schedule: Q04DX002 (ip), vehicle: saline with Tween-80 106 % of control and 92 % of control | endpoint: mean survival time, dose: 100.0 mg/kg/injection, schedule: Q01DX001 (ip), vehicle: saline with Tween-80 109 % of control | [1] 95 % of control and 96 % of control | [6] 97 % of control | endpoint: mean survival time, dose: 200.0 mg/kg/injection, schedule: Q01DX001 (ip), vehicle: saline with Tween-80 103 % of control | endpoint: mean survival time, dose: 200.0 mg/kg/injection, schedule: Q01DX009 (ip), vehicle: saline with Tween-80 94 % of control and 100 % of control | [7] 103 % of control | endpoint: mean survival time, dose: 400.0 mg/kg/injection, schedule: Q01DX001 (ip), vehicle: saline with Tween-80 104 % of control | [8] 95 % of control

O=S(=O)(c1ccc(Nc2nnc(-c3ccccc3)s2)cc1)N1CCCCC1
inactive: [5] 96 % of control | [13] 89 % of control | [14] 86 % of control

CCCCOC(=O)C(C)OC(=O)CCC (stereo not drawn)
inactive: [5] 102 % of control | endpoint: mean survival time, dose: 100.0 mg/kg/injection, schedule: Q04DX003 (ip), vehicle: Klucel (hydroxypropylcellulose) (HPC) 99 % of control | [13] 90 % of control | endpoint: mean survival time, dose: 200.0 mg/kg/injection, schedule: Q04DX003 (ip), vehicle: Klucel (hydroxypropylcellulose) (HPC) 107 % of control | [14] 102 % of control | endpoint: mean survival time, dose: 400.0 mg/kg/injection, schedule: Q04DX003 (ip), vehicle: Klucel (hydroxypropylcellulose) (HPC) 102 % of control

O=C(Oc1ccccc1)Oc1ccccc1
inactive: [2] 96 % of control | [3] 96 % of control | [4] 96 % of control

CC(C)(C)C(=O)[CH-]C(=O)C(C)(C)C.CC(C)(C)C(=O)[CH-]C(=O)C(C)(C)C.CC(C)(C)C(=O)[CH-]C(=O)C(C)(C)C.CN(C)C=O.[Er+3]
inactive: endpoint: mean survival time, dose: 100.0 mg/kg/injection, schedule: Q04DX002 (ip), vehicle: saline with Tween-80 105 % of control | endpoint: mean survival time, dose: 200.0 mg/kg/injection, schedule: Q04DX002 (ip), vehicle: saline with Tween-80 94 % of control | endpoint: mean survival time, dose: 400.0 mg/kg/injection, schedule: Q04DX002 (ip), vehicle: saline with Tween-80 94 % of control
